Reference: article doi:10.64898/2025.12.03.692196v2, “Dimerization and Threonine-Dependent Stabilization Govern Human YRDC Catalysis” (biorxiv, 2026)
Substitutions are numbered along the chain they refer to.

How the values were obtained:
Assay in all cases: biochemical
Design in all cases: SYPRO Orange DSF; apparent Kd from Tm versus ligand concentration
[1] = target: T1, YRDCWT (human YRDC, ΔN43) (Homo sapiens, UniProt Q86U90, R253K); conditions: With L-threonine; DSF apparent KD
T1 construct: lacks first 43 residues (N-terminal truncation); N-terminal His6 tag removed with TEV; E. coli BL21(DE3); homodimer
T1 sequence (Q86U90 44-279 R253K): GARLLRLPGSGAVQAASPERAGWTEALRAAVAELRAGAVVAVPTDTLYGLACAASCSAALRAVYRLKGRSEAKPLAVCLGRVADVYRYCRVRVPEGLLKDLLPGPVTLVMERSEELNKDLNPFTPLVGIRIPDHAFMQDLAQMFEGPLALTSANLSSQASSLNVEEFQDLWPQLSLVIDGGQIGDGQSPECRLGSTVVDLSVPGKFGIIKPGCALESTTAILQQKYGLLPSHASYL
Experimental: (§1) Reactions were prepared in a MicroAmp™ 96-well optical reaction plate (Fisher Scientific) with a final volume of 20 μL per well, in assay buffer (50 mM Tricine pH 8.5, 10 mM MgCl₂) with 8 μM YRDC, and 5X SYPRO Orange dye (Invitrogen). The concentrations of substrates, including ATP, L-threonine, and NaHCO3, were varied based on the reaction type. In most cases wild-type YRDC and its mutants were assessed under various conditions, including enzyme alone, enzyme with ATP concentrations ranging from 10 µM to 500 µM, enzyme with L-threonine concentrations between 0.5 mM and 50 mM, either in the presence or absence of 500 µM ATP, and enzyme with NaHCO3 concentrations from 10 mM to 500 mM in the presence of both 500 µM ATP and 25 mM L-threonine. Fluorescence emission was recorded using Applied Biosystems® QuantStudio 1 Real-Time PCR system (λex = 520 nm, λem = 558 nm). Temperature increases were performed over the range of 25–95 °C, with increments of 1 °C/min, while changes in fluorescence intensity were continuously measured. Each experiment was conducted in triplicate, and the data are presented as the mean ± standard deviation. Control reactions, prepared without the enzyme, were used to account for background fluorescence and were subtracted from experimental measurements. Melting curves were fitted using a Boltzmann sigmoidal model, and thermal stability (Tₘ) values were determined from the inflection point of the curve. The dissociation constant (KD) of the enzyme with each substrate is calculated based on the DSF single binding equation[45]: [drawing 1] Where Tm,0 and Tm,∞refer to the melting temperature (Tm) in °C at zero and infinite ligand concentrations, respectively, P represents the protein concentration and Kd,app is the apparent dissociation constant obtained from ligand-dependent thermal stabilisation.

[2] = target: T2, YRDCWT (human YRDC, ΔN43) (Homo sapiens, UniProt Q86U90, C121A); conditions: With L-threonine; DSF apparent KD
T2 construct: lacks first 43 residues (N-terminal truncation); N-terminal His6 tag removed with TEV; E. coli BL21(DE3); homodimer
T2 sequence (Q86U90 44-279 C121A): T1 sequence (Q86U90 44-279 R253K) with C78A, K210R
Experimental: as §1

YRDCS195A = target: T3, YRDCS195A (Homo sapiens, UniProt Q86U90, S238A); conditions: With L-threonine; DSF apparent KD
T3 construct: gene YRDC; lacks N-terminal 43 residues; printed numbering S195A is of the truncated protein
T3 sequence (Q86U90 1-279 S238A): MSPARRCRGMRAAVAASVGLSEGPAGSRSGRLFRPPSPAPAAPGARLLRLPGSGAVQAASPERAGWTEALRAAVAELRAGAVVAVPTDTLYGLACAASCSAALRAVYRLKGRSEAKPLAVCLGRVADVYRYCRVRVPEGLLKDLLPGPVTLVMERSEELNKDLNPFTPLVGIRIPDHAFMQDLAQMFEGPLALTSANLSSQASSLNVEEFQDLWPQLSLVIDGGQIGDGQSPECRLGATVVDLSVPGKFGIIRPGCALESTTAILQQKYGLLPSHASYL
Experimental: as §1

[3] = target: T4, YRDCWT (human YRDC, ΔN43) (Homo sapiens, UniProt Q86U90); conditions: With ATP; DSF apparent KD
T4 construct: lacks first 43 residues (N-terminal truncation); N-terminal His6 tag removed with TEV; E. coli BL21(DE3); homodimer
T4 sequence (Q86U90 with tags, fused parts or gaps DEL265-265): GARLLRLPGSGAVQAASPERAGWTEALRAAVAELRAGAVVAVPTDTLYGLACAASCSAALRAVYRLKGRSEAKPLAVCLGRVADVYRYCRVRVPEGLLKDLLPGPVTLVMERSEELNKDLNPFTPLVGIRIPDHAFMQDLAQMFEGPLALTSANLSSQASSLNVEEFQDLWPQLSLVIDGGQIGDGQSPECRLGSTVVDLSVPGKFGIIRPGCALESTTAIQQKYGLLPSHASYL
Experimental: as §1

[4] = target: T5, YRDCWT (human YRDC, ΔN43) (Homo sapiens, UniProt Q86U90, I221T); conditions: DSF apparent KD
T5 construct: lacks first 43 residues (N-terminal truncation); N-terminal His6 tag removed with TEV; E. coli BL21(DE3); homodimer
T5 sequence (Q86U90 44-279 I221T): T1 sequence (Q86U90 44-279 R253K) with I178T, K210R
Experimental: as §1

[5] = target: T6, YRDCWT (human YRDC, ΔN43) (Homo sapiens, UniProt Q86U90); conditions: DSF apparent KD
T6 construct: lacks first 43 residues (N-terminal truncation); N-terminal His6 tag removed with TEV; E. coli BL21(DE3); homodimer
T6 sequence (Q86U90 44-279 C121A): T1 sequence (Q86U90 44-279 R253K) with C78A, K210R
Experimental: as §1

(human YRDC, ΔN43) = target: T7, (human YRDC, ΔN43) (Homo sapiens, UniProt Q86U90, A84V); conditions: With ATP and L-threonine; DSF apparent KD
T7 construct: lacks first 43 residues (N-terminal truncation); N-terminal His6 tag removed with TEV; E. coli BL21(DE3); homodimer
T7 sequence (Q86U90 44-279 A84V): T1 sequence (Q86U90 44-279 R253K) with A41V, K210R
Experimental: as §1

Compound: Nc1ncnc2c1ncn2[C@@H]1O[C@H](COP(=O)(O)OP(=O)(O)OP(=O)(O)O)[C@@H](O)[C@H]1O [ATP]
- Kd [1]: 148 ± 112 µM
- Kd [2]: 133 ± 29.7 µM
- Kd (YRDCS195A): 48.9 ± 37.8 µM

Compound: C[C@@H](O)[C@H](N)C(=O)O [L-threonine]
- Kd [3]: 2100 ± 700 µM
- Kd ([4]; With ATP): 400 ± 100 µM
- Kd ([5]; With ATP): 1200 ± 300 µM

Compound: O=C(O)O [bicarbonate]
- Kd ((human YRDC, ΔN43)): 6500 ± 2000 µM
- Kd ([4]; With ATP and L-threonine): 8300 ± 4200 µM
- Kd ([5]; With ATP and L-threonine): 3700 ± 2000 µM
